The record followed here is US20200046620A1, “Solid Compositions for Teeth Whitening and Anti-Microbial Effects” (Colgate-Palmolive Company, priority 2018, published 2020).

A short description of the test: pH-dependent bleaching of Lissamine green B dye by NaDCC. The class given is physicochemical. Conditions: 10 mg NaDCC in 20 mL. As to the method:
Two different solutions, Solution A and Solution B, were prepared. Solution A contained 2% SAPP, 0.1% Lissamine green B dye, and 97.9% water. Solution B contained 2% tetrasodium pyrophosphate (TSPP), 0.1% Lissamine green B dye, and 97.9% water. Next, solutions with various pHs were obtained by mixing the two different solutions A and B, in different volume ratios (i.e., 1:0, 1:5, 1:1, 5:1, and 0:1). 20 mL of the resulting solutions were added to 10 mg NaDCC, and the time required to bleach away all of the Lissamine green B color was recorded.

The structures appear in SMILES notation.

As for `O=c1nc([O-])n(Cl)c(=O)n1Cl.[Na+]` [NaDCC, sodium dichloroisocyanurate], the Time to bleach entry (Mix Solution 1, VA:VB 1:0, pH 4.6) is reported as “Instantaneous”; the Time to bleach (Mix Solution 2, VA:VB 1:5, pH 5.8) came out at 0.25 min; the Time to bleach (Mix Solution 3, VA:VB 1:1, pH 7.4) worked out at 8 min; the Time to bleach (Mix Solution 4, VA:VB 5:1, pH 8.8) turned out to be 35 min; the Time to bleach (Mix Solution 5, VA:VB 0:1, pH 10.5) is 80 min.
